Data: paper PMC10023679, “Amide-to-ester substitution as a stable alternative to N-methylation for increasing membrane permeability in cyclic peptides” (Nature Communications, 2023)
Non-standard residues stand in square brackets, D forms with d. Residues, ends and D or L forms follow the SMILES beside them. NMeF = CN[C@@H](Cc1ccccc1)C(=O)O; PhLac = O=C(O)[C@@H](O)Cc1ccccc1; Hica(2S) = CC(C)C[C@H](O)C(=O)O; NMeL = CN[C@@H](CC(C)C)C(=O)O; dHica = CC(C)C[C@@H](O)C(=O)O; dNMeL = CN[C@H](CC(C)C)C(=O)O

Columns and labels:
in vitro = in vitro ADME
[1] = 1,9-decadiene-water distribution coefficient; type: physicochemical; conditions: decadiene and aqueous buffer
[2] = Caco-2 assay (permeability across cell monolayers); type: in vitro ADME; conditions: Caco-2, 1 μM compounds in HBSS (pH 7.4) containing 10 mM HEPES and 1% DMSO, 3 h incubation at 37 °C, read-out: Caco-2 permeability Pa
[3] = Stability in simulated intestinal fluid (SIF); type: in vitro ADME; conditions: pH 6.8, 37 °C, at 4 h
Experimental: (§1) The stability assay of peptides in SIF was conducted according to United States Pharmacopeia & National Formulary (USP 25-NF 20)[64] and the previous report[65] with some modifications as follows. SIF used in this study was prepared by dissolving pancreatin (1.25 mg/mL) (Sigma, P7545, 8 × USP specifications) in 50 mM phosphate buffer at pH 6.8. The solution was vortexed for 1 min, sonicated for 15 min, centrifuged at 20,000 × g for 10 min, and filtered before use. 57 μL of SIF was incubated at 37 °C for 15 min and 3 μL of 1 μM peptide solution in DMSO was added to the warmed […]. After 1, 2, or 4 h, 60 μL of ice-cold ultra-pure water containing 5% trifluoroacetic acid was added and 120 μL of 30% acetonitrile in ultra-pure water was added. The samples were filtered and injected into UPLC.

[4] = Stability in simulated gastric fluid (SGF); type: in vitro ADME; conditions: pH 1.2, 37 °C, at 4 h
Experimental: as §1, with “SGF” for “SIF”, “pepsin (3.6” for “pancreatin (1.25”, “P7012, 3357 Unit/mg)” for “P7545, 8 × USP specifications)”, “an aqueous solution of 2 mg/mL sodium chloride (NaCl)” for “50 mM phosphate buffer”, “1.2.” for “6.8.”
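For Pe (PAMPA), CP1-Y1F-L2K series in this document: filter plate membrane of 1% soybean lecithin in dodecane, donor and acceptor in 5% DMSO/PBS, incubated at 25 °C, peptide in both compartments measured by LC-MS.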

CC(C)C[C@@H]1C(=O)N[C@H](C(C)C)C(=O)N[C@H](C)C(=O)N2CCC[C@@H]2C(=O)N[C@H](CC(C)C)C(=O)N[C@H](C(C)C)C(=O)N[C@H](C)C(=O)N2CCC[C@@H]2C(=O)N1C (cyclo([dA][dP][dL][dV][dA][dP][dNMeL][dV]))
Papp at 16 h, 3 μM (in vitro; PAMPA): 0.01 ×10⁻⁶ cm/s

CC(C)C[C@@H]1C(=O)N[C@H](C(C)C)C(=O)N[C@H](C)C(=O)N2CCC[C@@H]2C(=O)O[C@H](CC(C)C)C(=O)N[C@H](C(C)C)C(=O)N[C@H](C)C(=O)N2CCC[C@@H]2C(=O)N1C (cyclo([dA][dP][dNMeL][dV][dA][dP][dHica][dV]))
Papp at 16 h, 3 μM (in vitro; PAMPA): 0.03 ×10⁻⁶ cm/s

CC(C)C[C@@H]1NC(=O)[C@H](CC(C)C)N(C)C(=O)[C@@H](C(C)C)NC(=O)[C@H](C)NC(=O)[C@H](C)NC(=O)[C@H]2CCCN2C(=O)[C@@H](CC(C)C)NC(=O)[C@@H]2CCCN2C(=O)[C@H](CC(C)C)NC1=O (relative stereo)
Papp at 16 h, 3 μM (in vitro; PAMPA): 0.1 ×10⁻⁶ cm/s

CC(C)C[C@@H]1NC(=O)[C@H](CC(C)C)N(C)C(=O)[C@@H](C(C)C)NC(=O)[C@H](C)NC(=O)[C@H](C)OC(=O)[C@H]2CCCN2C(=O)[C@@H](CC(C)C)NC(=O)[C@@H]2CCCN2C(=O)[C@H](CC(C)C)NC1=O (relative stereo)
Papp at 16 h, 3 μM (in vitro; PAMPA): 1.1 ×10⁻⁶ cm/s

CC(C)C[C@@H]1NC(=O)[C@@H](CC(C)C)NC(=O)[C@H](CCCCN)NC(=O)[C@H](Cc2ccccc2)N(C)C(=O)[C@H]2CCCN2C(=O)[C@H](CC(C)C)NC1=O [CP1-Y1F-L2K NMe] (cyclo(K[dL]LL[dP][NMeF]))
Papp (in vitro; PAMPA): < 0.00075 ×10⁻⁶ cm/s

CC(C)C[C@@H]1NC(=O)[C@@H](CC(C)C)NC(=O)[C@H](CCCCN)NC(=O)[C@H](Cc2ccccc2)OC(=O)[C@H]2CCCN2C(=O)[C@H](CC(C)C)NC1=O [CP1-Y1F-L2K O] (cyclo(K[dL]LL[dP][PhLac]))
Pe (PAMPA), CP1-Y1F-L2K series (in vitro): 4.9 ×10⁻⁶ cm/s | Papp (in vitro; PAMPA): 0.0049 ×10⁻⁶ cm/s

CC(C)C[C@@H]1NC(=O)[C@@H](CC(C)C)NC(=O)[C@H](CCCCN)NC(=O)[C@H](Cc2ccccc2)NC(=O)[C@H]2CCCN2C(=O)[C@H](CC(C)C)NC1=O [CP1-Y1F-L2K] (cyclo(FK[dL]LL[dP]))
Papp (in vitro; PAMPA): < 0.0007 ×10⁻⁶ cm/s

CC(C)C[C@@H]1NC(=O)[C@@H](CC(C)C)NC(=O)[C@H](CO)NC(=O)[C@H](Cc2ccccc2)N(C)C(=O)[C@H]2CCCN2C(=O)[C@H](CC(C)C)NC1=O [CP1-Y1F-L2S NMe] (cyclo(LL[dP][NMeF]S[dL]))
Papp (in vitro; PAMPA): 0.5 ×10⁻⁶ cm/s

CC(C)C[C@@H]1NC(=O)[C@@H](CC(C)C)NC(=O)[C@H](CO)NC(=O)[C@H](Cc2ccccc2)OC(=O)[C@H]2CCCN2C(=O)[C@H](CC(C)C)NC1=O [CP1-Y1F-L2S O] (cyclo(LL[dP][PhLac]S[dL]))
Papp (in vitro; PAMPA): 4.1 ×10⁻⁶ cm/s

CC(C)C[C@@H]1NC(=O)[C@@H](CC(C)C)NC(=O)[C@H](CO)NC(=O)[C@H](Cc2ccccc2)NC(=O)[C@H]2CCCN2C(=O)[C@H](CC(C)C)NC1=O [CP1-Y1F-L2S] (cyclo(FS[dL]LL[dP]))
Papp (in vitro; PAMPA): 0.3 ×10⁻⁶ cm/s

CC(=O)N[C@@H](Cc1ccccc1)C(=O)O[C@@H](Cc1ccccc1)C(N)=O [D1]
Papp (in vitro; PAMPA, pH 7.4): 1.2 ×10⁻⁶ cm/s | log Ddec/w (1,9-decadiene–water distribution coefficient) [1]: –1.17 ± 0.01

CC(C)C[C@@H]1NC(=O)[C@H]2CCCN2C(=O)[C@H](CC(C)C)N(C)C(=O)[C@@H](C(C)C)NC(=O)[C@H](CC(C)C)NC(=O)[C@H]2CCCN2C(=O)[C@H](CC(C)C)N(C)C(=O)[C@@H](C(C)C)NC1=O [D8.21, reference compound] (cyclo(L[dV][NMeL][dP]L[dV][NMeL][dP]))
Papp at 16 h, 3 μM (in vitro; PAMPA): 8.2 ×10⁻⁶ cm/s

CC(C)C[C@@H]1NC(=O)[C@H]2CCCN2C(=O)[C@H](CC(C)C)NC(=O)[C@@H](C(C)C)NC(=O)[C@H](CC(C)C)NC(=O)[C@H]2CCCN2C(=O)[C@H](CC(C)C)N(C)C(=O)[C@@H](C(C)C)NC1=O [D8.21-amide] (cyclo(L[dP]L[dV][NMeL][dP]L[dV]))
Papp at 16 h, 3 μM (in vitro; PAMPA): 1.6 ×10⁻⁶ cm/s

CC(C)C[C@@H]1NC(=O)[C@H]2CCCN2C(=O)[C@H](CC(C)C)OC(=O)[C@@H](C(C)C)NC(=O)[C@H](CC(C)C)NC(=O)[C@H]2CCCN2C(=O)[C@H](CC(C)C)N(C)C(=O)[C@@H](C(C)C)NC1=O [D8.21-ester] (cyclo(L[dV][NMeL][dP]L[dV][Hica(2S)][dP]))
Papp at 16 h, 3 μM (in vitro; PAMPA): 5.8 ×10⁻⁶ cm/s

CC(C)C[C@@H]1C(=O)N[C@H](C(C)C)C(=O)N[C@H](C)C(=O)N2CCC[C@@H]2C(=O)N(C)[C@H](CC(C)C)C(=O)N[C@H](C(C)C)C(=O)N[C@H](C)C(=O)N2CCC[C@@H]2C(=O)N1C [D8.31, reference compound] (cyclo([dA][dP][dNMeL][dV][dA][dP][dNMeL][dV]))
Papp at 16 h, 3 μM (in vitro; PAMPA): 0.2 ×10⁻⁶ cm/s

CC(C)C[C@@H]1NC(=O)[C@@H](CC(C)C)OC(=O)[C@H](CC(C)C)NC(=O)[C@H](Cc2ccc(O)cc2)NC(=O)[C@H]2CCCN2C(=O)[C@H](CC(C)C)NC1=O [DP3] (cyclo(LL[dP]YL[dHica]))
Papp (in vitro; PAMPA): 1.3 ×10⁻⁶ cm/s | Papp [2]: 0.2 ×10⁻⁶ cm/s

CC(C)C[C@@H]1NC(=O)[C@H](Cc2ccc(O)cc2)NC(=O)[C@H]2CCCN2C(=O)[C@H](CC(C)C)NC(=O)[C@H](CC(C)C)OC(=O)[C@@H](CC(C)C)NC1=O [DP4] (cyclo(L[dL][Hica(2S)]L[dP]Y))
Papp (in vitro; PAMPA): 4.2 ×10⁻⁶ cm/s | Papp [2]: 1.2 ×10⁻⁶ cm/s

CC(C)C[C@@H]1NC(=O)[C@H](Cc2ccc(O)cc2)NC(=O)[C@H]2CCCN2C(=O)[C@H](CC(C)C)OC(=O)[C@H](CC(C)C)NC(=O)[C@@H](CC(C)C)NC1=O [DP5] (cyclo(L[dL]L[Hica(2S)][dP]Y))
Papp (in vitro; PAMPA): 4.4 ×10⁻⁶ cm/s | Papp [2]: 2.8 ×10⁻⁶ cm/s

CC(=O)N[C@@H](Cc1ccccc1)C(=O)N(C)[C@@H](Cc1ccccc1)C(N)=O [M1] (Ac-Phe-[NMeF]-NH2)
log Ddec/w (1,9-decadiene–water distribution coefficient) [1]: –1.24 ± 0.01

CC(=O)N[C@@H](CC(C)C)C(=O)N(C)[C@@H](Cc1ccccc1)C(N)=O [M2] (Ac-Leu-[NMeF]-NH2)
Papp (in vitro; PAMPA, pH 7.4): 0.2 ×10⁻⁶ cm/s | log Ddec/w (1,9-decadiene–water distribution coefficient) [1]: –1.62 ± 0.02

CC(=O)N[C@@H](CC(C)C)C(=O)N(C)[C@@H](CC(C)C)C(N)=O [M3]
Papp (in vitro; PAMPA, pH 7.4): 0.1 ×10⁻⁶ cm/s | log Ddec/w (1,9-decadiene–water distribution coefficient) [1]: –2.13 ± 0.02

CC(C)C[C@@H]1NC(=O)[C@@H](CC(C)C)NC(=O)[C@H](CC(C)C)N(C)C(=O)[C@H](Cc2ccc(O)cc2)NC(=O)[C@H]2CCCN2C(=O)[C@H](CC(C)C)NC1=O [MP2] (cyclo(LL[dP]Y[NMeL][dL]))
Papp (in vitro; PAMPA): 1 ×10⁻⁶ cm/s | Papp [2]: 0.3 ×10⁻⁶ cm/s

CC(C)C[C@@H]1NC(=O)[C@@H](CC(C)C)N(C)C(=O)[C@H](CC(C)C)NC(=O)[C@H](Cc2ccc(O)cc2)NC(=O)[C@H]2CCCN2C(=O)[C@H](CC(C)C)NC1=O [MP3] (cyclo(LL[dP]YL[dNMeL]))
Papp at 16 h, 2 μM (in vitro; PAMPA): 0.6 ×10⁻⁶ cm/s | Papp at 3 h, 1 μM ([2]; human): 0.2 ×10⁻⁶ cm/s

CC(C)C[C@@H]1NC(=O)[C@H](Cc2ccc(O)cc2)NC(=O)[C@H]2CCCN2C(=O)[C@H](CC(C)C)NC(=O)[C@H](CC(C)C)N(C)C(=O)[C@@H](CC(C)C)NC1=O [MP4] (cyclo(L[dL][NMeL]L[dP]Y))
Papp (in vitro; PAMPA): 2.5 ×10⁻⁶ cm/s | Papp [2]: 0.5 ×10⁻⁶ cm/s

CC(C)C[C@@H]1NC(=O)[C@H](Cc2ccc(O)cc2)NC(=O)[C@H]2CCCN2C(=O)[C@H](CC(C)C)N(C)C(=O)[C@H](CC(C)C)NC(=O)[C@@H](CC(C)C)NC1=O [MP5] (cyclo(L[NMeL][dP]YL[dL]))
Papp (in vitro; PAMPA): 1.7 ×10⁻⁶ cm/s | Papp [2]: 1.2 ×10⁻⁶ cm/s

CC(=O)N[C@@H](Cc1ccccc1)C(=O)N[C@@H](Cc1ccccc1)C(N)=O [P1] (Ac-Phe-Phe-NH2)
log Ddec/w (1,9-decadiene–water distribution coefficient) [1]: –2.75 ± 0.01

CC[C@H](C)[C@@H]1NC(=O)[C@H](Cc2ccc(O)cc2)NC(=O)[C@@H](N)CSSC[C@@H](C(=O)N2CCC[C@H]2C(=O)N[C@@H](CC(C)C)C(=O)NCC(N)=O)NC(=O)[C@H](CC(N)=O)NC(=O)[C@H](CCC(N)=O)NC1=O [oxytocin, reference compound]
Fraction degraded in SIF ([3]; SIF-containing pancreatin): more than 90% | metabolised at 4 h, 0.05 μM ([3]; simulated intestinal fluid (SIF) containing pancreatin, read-out: Fraction degraded in SIF): 94%

C[C@H](N)C(=O)NCC(=O)N[C@H]1CSSC[C@@H](C(=O)O)NC(=O)[C@H](CO)NC(=O)[C@H]([C@@H](C)O)NC(=O)[C@H](Cc2ccccc2)NC(=O)[C@H]([C@@H](C)O)NC(=O)[C@H](CCCCN)NC(=O)[C@H](Cc2c[nH]c3ccccc23)NC(=O)[C@H](Cc2ccccc2)NC(=O)[C@H](Cc2ccccc2)NC(=O)[C@H](CC(N)=O)NC(=O)[C@H](CCCCN)NC1=O [somatostatin, reference compound]
Fraction degraded in SGF ([4]; SGF-containing pepsin): more than 90% | metabolised at 4 h, 0.05 μM ([4]; simulated gastric fluid (SGF) containing pepsin, read-out: Fraction degraded in SGF): 98%
